# Source: PubChem BioAssay AID256 (DTP/NCI, 2004)
# Values joined by “and” are separate entries in the source; they are usually repeats but may differ in a detail not shown here. Equal entries are not always repeated. Inconclusive results and toxic doses are left out.
# Tested on: CD2F1 mice, L1210 leukemia ip, survival T/C
# Assay: NCI In Vivo Anticancer Drug Screen. Data for tumor model L1210 Leukemia (intraperitoneal) in CD2F1 (CDF1) mice
# Details: higher = longer survival
# Summary of the method: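 Mice carrying a transplanted tumor received test compound or vehicle alone. The value is the measurement in the treated group divided by that in the vehicle-treated control group.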
structure (smiles),measurement,setting,value
Cc1cc(NCCCCCCNc2cc(C)nc3ccc(N)cc23)c2cc(N)ccc2n1,T/C,"endpoint: mean survival time, dose: 0.16 mg/kg/injection, schedule: Q08HX006 (iv), vehicle: water",103 % of control
same,T/C,"endpoint: mean survival time, dose: 0.31 mg/kg/injection, schedule: Q08HX006 (iv), vehicle: water",104 % of control
same,T/C,"endpoint: mean survival time, dose: 0.4 mg/kg/injection, schedule: Q08HX009 (ip), vehicle: water",105 % of control
same,T/C,"endpoint: mean survival time, dose: 0.6 mg/kg/injection, schedule: Q01DX009 (ip), vehicle: water",98 % of control
same,T/C,"endpoint: mean survival time, dose: 0.6 mg/kg/injection, schedule: Q08HX009 (iv), vehicle: water",88 % of control
same,T/C,"endpoint: mean survival time, dose: 0.63 mg/kg/injection, schedule: Q08HX006 (iv), vehicle: water",92 % of control
same,T/C,"endpoint: mean survival time, dose: 0.8 mg/kg/injection, schedule: Q08HX009 (ip), vehicle: water",101 % of control
same,T/C,"endpoint: mean survival time, dose: 1.1 mg/kg/injection, schedule: Q01DX005 (iv), vehicle: water",104 % of control
same,T/C,"endpoint: mean survival time, dose: 1.2 mg/kg/injection, schedule: Q01DX009 (ip), vehicle: water",97 % of control
same,T/C,"endpoint: mean survival time, dose: 1.25 mg/kg/injection, schedule: Q08HX006 (iv), vehicle: water",103 % of control
same,T/C,"endpoint: mean survival time, dose: 1.3 mg/kg/injection, schedule: Q08HX009 (iv), vehicle: water",94 % of control
same,T/C,"endpoint: mean survival time, dose: 1.4 mg/kg/injection, schedule: Q01DX005 (iv), vehicle: water",98 % of control
same,T/C,"endpoint: mean survival time, dose: 1.56 mg/kg/injection, schedule: Q01DX009 (ip), vehicle: water",103 % of control and 111 % of control
same,T/C,"endpoint: mean survival time, dose: 1.6 mg/kg/injection, schedule: Q08HX009 (ip), vehicle: water",104 % of control
same,T/C,"endpoint: mean survival time, dose: 1.9 mg/kg/injection, schedule: Q01DX005 (iv), vehicle: water",101 % of control
same,T/C,"endpoint: mean survival time, dose: 1.9 mg/kg/injection, schedule: Q08HX009 (iv), vehicle: saline with Tween-80",92 % of control
same,T/C,"endpoint: mean survival time, dose: 2.4 mg/kg/injection, schedule: Q01DX009 (ip), vehicle: saline with Tween-80",114 % of control and 116 % of control
same,T/C,"endpoint: mean survival time, dose: 2.4 mg/kg/injection, schedule: Q01DX009 (ip), vehicle: water",111 % of control
same,T/C,"endpoint: mean survival time, dose: 2.5 mg/kg/injection, schedule: Q01DX005 (iv), vehicle: water",103 % of control
same,T/C,"endpoint: mean survival time, dose: 2.5 mg/kg/injection, schedule: Q08HX006 (iv), vehicle: water",105 % of control
same,T/C,"endpoint: mean survival time, dose: 2.5 mg/kg/injection, schedule: Q08HX009 (ip), vehicle: saline with Tween-80",119 % of control
same,T/C,"endpoint: mean survival time, dose: 2.5 mg/kg/injection, schedule: Q08HX009 (iv), vehicle: water",93 % of control
same,T/C,"endpoint: mean survival time, dose: 2.53 mg/kg/injection, schedule: Q01DX005 (iv), vehicle: water",95 % of control
same,T/C,"endpoint: mean survival time, dose: 2.58 mg/kg/injection, schedule: Q01DX005 (iv), vehicle: saline with Tween-80",101 % of control
same,T/C,"endpoint: mean survival time, dose: 3.0 mg/kg/injection, schedule: Q01DX009 (ip), vehicle: water",95 % of control and 107 % of control
same,T/C,"endpoint: mean survival time, dose: 3.13 mg/kg/injection, schedule: Q01DX009 (ip), vehicle: water",113 % of control and 124 % of control
same,T/C,"endpoint: mean survival time, dose: 3.2 mg/kg/injection, schedule: Q08HX009 (ip), vehicle: water",112 % of control
same,T/C,"endpoint: mean survival time, dose: 3.38 mg/kg/injection, schedule: Q01DX005 (iv), vehicle: water",100 % of control
same,T/C,"endpoint: mean survival time, dose: 3.38 mg/kg/injection, schedule: Q01DX009 (sc), vehicle: water",98 % of control
same,T/C,"endpoint: mean survival time, dose: 3.4 mg/kg/injection, schedule: Q01DX005 (iv), vehicle: water",101 % of control
same,T/C,"endpoint: mean survival time, dose: 3.44 mg/kg/injection, schedule: Q01DX009 (ip), vehicle: saline with Tween-80",114 % of control
same,T/C,"endpoint: mean survival time, dose: 3.44 mg/kg/injection, schedule: Q01DX009 (sc), vehicle: saline with Tween-80",100 % of control
same,T/C,"endpoint: mean survival time, dose: 3.7 mg/kg/injection, schedule: Q01DX009 (ip), vehicle: saline with Tween-80",117 % of control
same,T/C,"endpoint: mean survival time, dose: 3.8 mg/kg/injection, schedule: Q08HX006 (iv), vehicle: saline with Tween-80",101 % of control
same,T/C,"endpoint: mean survival time, dose: 3.8 mg/kg/injection, schedule: Q08HX009 (iv), vehicle: saline with Tween-80",88 % of control
same,T/C,"endpoint: mean survival time, dose: 4.51 mg/kg/injection, schedule: Q01DX009 (ip), vehicle: water",113 % of control
same,T/C,"endpoint: mean survival time, dose: 4.59 mg/kg/injection, schedule: Q01DX009 (ip), vehicle: saline with Tween-80",115 % of control
same,T/C,"endpoint: mean survival time, dose: 4.59 mg/kg/injection, schedule: Q01DX009 (sc), vehicle: saline with Tween-80",96 % of control
same,T/C,"endpoint: mean survival time, dose: 4.7 mg/kg/injection, schedule: Q01DX009 (ip), vehicle: saline with Tween-80",121 % of control
same,T/C,"endpoint: mean survival time, dose: 4.8 mg/kg/injection, schedule: Q01DX009 (ip), vehicle: water",114 % of control
same,T/C,"endpoint: mean survival time, dose: 5.0 mg/kg/injection, schedule: Q08HX006 (iv), vehicle: water",100 % of control
same,T/C,"endpoint: mean survival time, dose: 5.3 mg/kg/injection, schedule: Q01DX009 (ip), vehicle: water",114 % of control and 97 % of control
same,T/C,"endpoint: mean survival time, dose: 6.12 mg/kg/injection, schedule: Q01DX005 (iv), vehicle: saline with Tween-80",97 % of control
same,T/C,"endpoint: mean survival time, dose: 6.12 mg/kg/injection, schedule: Q01DX009 (ip), vehicle: saline with Tween-80",119 % of control
same,T/C,"endpoint: mean survival time, dose: 6.12 mg/kg/injection, schedule: Q01DX009 (sc), vehicle: saline with Tween-80",97 % of control
same,T/C,"endpoint: mean survival time, dose: 6.25 mg/kg/injection, schedule: Q01DX009 (ip), vehicle: water",122 % of control
same,T/C,"endpoint: mean survival time, dose: 6.4 mg/kg/injection, schedule: Q08HX009 (ip), vehicle: water",121 % of control
same,T/C,"endpoint: mean survival time, dose: 7.2 mg/kg/injection, schedule: Q01DX009 (ip), vehicle: saline with Tween-80",115 % of control
same,T/C,"endpoint: mean survival time, dose: 7.4 mg/kg/injection, schedule: Q01DX009 (ip), vehicle: saline with Tween-80",120 % of control
same,T/C,"endpoint: mean survival time, dose: 7.6 mg/kg/injection, schedule: Q08HX006 (iv), vehicle: saline with Tween-80",101 % of control
same,T/C,"endpoint: mean survival time, dose: 7.6 mg/kg/injection, schedule: Q08HX009 (iv), vehicle: saline with Tween-80",89 % of control
same,T/C,"endpoint: mean survival time, dose: 8.2 mg/kg/injection, schedule: Q01DX009 (sc), vehicle: saline with Tween-80",98 % of control
same,T/C,"endpoint: mean survival time, dose: 9.0 mg/kg/injection, schedule: Q01DX009 (ip), vehicle: saline",121 % of control
same,T/C,"endpoint: mean survival time, dose: 9.4 mg/kg/injection, schedule: Q01DX009 (ip), vehicle: water",118 % of control
same,T/C,"endpoint: mean survival time, dose: 10.9 mg/kg/injection, schedule: Q01DX009 (sc), vehicle: saline with Tween-80",98 % of control
same,T/C,"endpoint: mean survival time, dose: 12.8 mg/kg/injection, schedule: Q01DX009 (ip), vehicle: saline with Tween-80",115 % of control
same,T/C,"endpoint: mean survival time, dose: 14.5 mg/kg/injection, schedule: Q01DX009 (ip), vehicle: saline with Tween-80",156 % of control
same,T/C,"endpoint: mean survival time, dose: 15.3 mg/kg/injection, schedule: Q08HX009 (iv), vehicle: saline with Tween-80",89 % of control
same,T/C,"endpoint: mean survival time, dose: 19.0 mg/kg/injection, schedule: Q01DX009 (sc), vehicle: water",113 % of control
same,T/C,"endpoint: mean survival time, dose: 19.4 mg/kg/injection, schedule: Q01DX005 (iv), vehicle: saline with Tween-80",118 % of control and 119 % of control
same,T/C,"endpoint: mean survival time, dose: 19.4 mg/kg/injection, schedule: Q01DX009 (ip), vehicle: saline with Tween-80",165 % of control
same,T/C,"endpoint: mean survival time, dose: 19.4 mg/kg/injection, schedule: Q01DX009 (sc), vehicle: saline with Tween-80",115 % of control
same,T/C,"endpoint: mean survival time, dose: 19.6 mg/kg/injection, schedule: Q08HX009 (ip), vehicle: saline with Tween-80",151 % of control
same,T/C,"endpoint: mean survival time, dose: 22.7 mg/kg/injection, schedule: Q01DX009 (ip), vehicle: saline with Tween-80",118 % of control
same,T/C,"endpoint: mean survival time, dose: 25.0 mg/kg/injection, schedule: Q01DX009 (ip), vehicle: water",109 % of control
same,T/C,"endpoint: mean survival time, dose: 25.3 mg/kg/injection, schedule: Q01DX009 (ip), vehicle: water",160 % of control
same,T/C,"endpoint: mean survival time, dose: 25.3 mg/kg/injection, schedule: Q01DX009 (sc), vehicle: water",115 % of control
same,T/C,"endpoint: mean survival time, dose: 25.8 mg/kg/injection, schedule: Q01DX005 (iv), vehicle: saline with Tween-80",117 % of control and 120 % of control
same,T/C,"endpoint: mean survival time, dose: 25.8 mg/kg/injection, schedule: Q01DX009 (ip), vehicle: saline with Tween-80",166 % of control
same,T/C,"endpoint: mean survival time, dose: 25.8 mg/kg/injection, schedule: Q01DX009 (sc), vehicle: saline with Tween-80",123 % of control
same,T/C,"endpoint: mean survival time, dose: 29.4 mg/kg/injection, schedule: Q01DX009 (ip), vehicle: saline with Tween-80",171 % of control
same,T/C,"endpoint: mean survival time, dose: 30.6 mg/kg/injection, schedule: Q08HX009 (iv), vehicle: saline with Tween-80",95 % of control
same,T/C,"endpoint: mean survival time, dose: 33.8 mg/kg/injection, schedule: Q01DX009 (sc), vehicle: water",124 % of control
same,T/C,"endpoint: mean survival time, dose: 34.4 mg/kg/injection, schedule: Q01DX005 (iv), vehicle: saline with Tween-80",116 % of control and 123 % of control
same,T/C,"endpoint: mean survival time, dose: 34.4 mg/kg/injection, schedule: Q01DX009 (ip), vehicle: saline with Tween-80",167 % of control
same,T/C,"endpoint: mean survival time, dose: 34.4 mg/kg/injection, schedule: Q01DX009 (sc), vehicle: saline with Tween-80",124 % of control
same,T/C,"endpoint: mean survival time, dose: 39.2 mg/kg/injection, schedule: Q08HX009 (ip), vehicle: saline with Tween-80",165 % of control
same,T/C,"endpoint: mean survival time, dose: 40.4 mg/kg/injection, schedule: Q01DX009 (ip), vehicle: saline with Tween-80",123 % of control
same,T/C,"endpoint: mean survival time, dose: 45.9 mg/kg/injection, schedule: Q01DX009 (ip), vehicle: saline with Tween-80",171 % of control
same,T/C,"endpoint: mean survival time, dose: 58.8 mg/kg/injection, schedule: Q01DX009 (ip), vehicle: saline with Tween-80",185 % of control
same,T/C,"endpoint: mean survival time, dose: 71.8 mg/kg/injection, schedule: Q01DX009 (ip), vehicle: saline with Tween-80",157 % of control
same,T/C,"endpoint: mean survival time, dose: 78.4 mg/kg/injection, schedule: Q08HX009 (ip), vehicle: saline with Tween-80",180 % of control
same,T/C,"endpoint: mean survival time, dose: 117.6 mg/kg/injection, schedule: Q01DX009 (ip), vehicle: saline with Tween-80",98 % of control
same,T/C,"endpoint: mean survival time, dose: 127.8 mg/kg/injection, schedule: Q01DX009 (ip), vehicle: saline with Tween-80",151 % of control
same,T/C,"endpoint: mean survival time, dose: 150.0 mg/kg/injection, schedule: Q01DX009 (ip), vehicle: saline with Tween-80",168 % of control and 174 % of control
same,T/C,"endpoint: mean survival time, dose: 300.0 mg/kg/injection, schedule: Q01DX009 (ip), vehicle: saline with Tween-80",120 % of control
same,T/C,"endpoint: median survival time, dose: 0.78 mg/kg/injection, schedule: Q01DX009 (ip), vehicle: water",98 % of control
same,T/C,"endpoint: median survival time, dose: 1.56 mg/kg/injection, schedule: Q01DX009 (ip), vehicle: water",93 % of control
same,T/C,"endpoint: median survival time, dose: 3.12 mg/kg/injection, schedule: Q01DX009 (ip), vehicle: water",98 % of control
same,T/C,"endpoint: median survival time, dose: 6.25 mg/kg/injection, schedule: Q01DX009 (ip), vehicle: water",109 % of control
same,T/C,"endpoint: median survival time, dose: 12.5 mg/kg/injection, schedule: Q01DX009 (ip), vehicle: water",117 % of control
